Results published in patent US8273775B2, “Non-steroidal brassinosteroid mimetic” (priority 2006, dated 2012).

Tested on: gene expression in Col-0 seedling shoots
Test: Microarray analysis (ATH1 Affymetrix) after BL or abrasin treatment
Assay type: in vivo, Arabidopsis
Details: 30 min
Description: FIG. 14: Clustering of gene expression profiles by QT-clust analysis. Clusters illustrating the major patterns of the data sets. Points: BIK-30: 30 μM abrasin 30 min; BL-30: 1 μM brassinolide 30 min; DMSO-30: control DMSO 30 min; BIK-120: 30 μM abrasin 120 min; BL-120: 1 μM brassinolide 120 min; DMSO-120: control DMSO 120 min.
Col-0 seeds were germinated vertically on ½ MS medium for 7 days under 16 h light/8 h dark cycles. The seedlings were overlaid with liquid ½ MS medium containing 1 μM brassinolide (BL, Fuji Chemical Industries, Ltd., Toyama, Japan), 30 μM abrasin (BIK, ChemBridge Corporation) and DMSO and treated for 30 and 120 min. The shoot parts were collected for RNA isolation. All sampling points were performed in three independent experiments. RNA was extracted using RNeasy kit (Qiagene). […] total RNA per array was used to hybridise the ATH1 Affymetrix Arabidopsis arrays according to standard procedure. The overrepresentation analyses were performed using BiNGO software (Maere et al., 2005).
We performed a microarray analysis using the Arabidopsis whole genome chip (Affymetix) to determine whether abrasin activated the expression of BR-inducible genes at transcriptional level. Wild-type Col-0 seedlings were exposed to 1 μM BL, 30 μM ABRASIN and DMSO (mock-treatment) for two time points (30 min and 120 min) and the shoot parts were collected for RNA isolation. The analysis of the variance of the normalized gene expression data took in account the variability parameters affecting the expression level: type of hormone treatment, duration of treatment and the interaction between these two.

## CC(C)[C@H](C)[C@@H](O)[C@H](O)[C@@H](C)[C@H]1CC[C@H]2[C@@H]3COC(=O)[C@H]4C[C@H](O)[C@H](O)C[C@]4(C)[C@H]3CC[C@]12C [BL, brassinolide, reference compound]
  Fold-change AT2G23320 WRKY family transcription factor: 0.86
  Fold-change AT2G26530 expressed protein: 0.41
  Fold-change AT2G26710 cytochrome p450 family (BAS1): 1.56
  Fold-change AT2G28510 Dof-type zinc finger domain-containing protein: 0.94
  Fold-change AT2G29340 short-chain dehydrogenase/reductase (SDR) family protein: 0.85
  Fold-change AT2G29990 pyridine nucleotide-disulphide oxidoreductase family protein: 0.94
  Fold-change AT2G30070 potassium transporter (KUP1): 0.81
  Fold-change AT2G31230 encodes a member of the ERF (ethylene response factor): 1.66
  Fold-change AT2G34650 protein kinase PINOID (PID): 1.54
  Fold-change AT2G36220 expressed protein: 1.18
  Fold-change AT2G37590 Dof-type zinc finger domain-containing protein: 0.90
  Fold-change AT2G38470 WRKY family transcription factor: 0.38
  Fold-change AT2G39710 aspartyl protease family protein: 1.25
  Fold-change AT2G40340; AT2G40350 [AT2G40340, encodes a member of the DREB subfamily A-2 of ERF/AP2: 1.16
  Fold-change AT2G41250 haloacid dehalogenase-like hydrolase family protein: 0.91
  Fold-change AT2G41640 expressed protein: 0.84
  Fold-change AT2G42280 basic helix-loop-helix (bHLH) family protein: 0.98
  Fold-change AT2G43060 expressed protein, similar to cDNA bHLH transcription factor: 0.25
  Fold-change AT2G43280 far-red impaired responsive family protein: 0.84
  Fold-change AT2G43290 calmodulin-like protein (MSS3): 1.24
  Fold-change AT2G44130 kelch repeat-containing F-box family protein: 1.63
  Fold-change AT2G44500 expressed protein: 1.16
  Fold-change AT2G45210 auxin-responsive protein-related: 0.77
  Fold-change AT2G45680 TCP family transcription factor: 0.91
  Fold-change AT2G46225 Encodes a subunit of the WAVE complex: 0.97
  Fold-change AT2G47440 DNAJ heat shock N-terminal domain-containing protein: 1.31
  Fold-change AT3G04210 disease resistance protein (TIR-NBS class), putative,: 0.89
  Fold-change AT3G09920 phosphatidylinositol-4-phosphate 5-kinase family protein: 0.94
  Fold-change AT3G12920 expressed protein: 0.81
  Fold-change AT3G13040 myb family transcription factor: 0.84
  Fold-change AT3G13510 expressed protein: 1.06
  Fold-change AT3G13980 expressed protein: 0.71
  Fold-change AT3G14370 protein kinase family protein: 2.13
  Fold-change AT3G14560 expressed protein: 0.81
  Fold-change AT3G16570 rapid alkalinization factor (RALF) family protein: 0.88
  Fold-change AT3G17860 expressed protein: 1.08
  Fold-change AT3G18830 polyol/cyclitol/monosaccharide-H+-symporte: 1.11
  Fold-change AT3G19380 U-box domain-containing protein: 0.70
  Fold-change AT3G23030 auxin-responsive protein/indoleacetic acid-induced protein 2 (IAA2): 0.66
  Fold-change AT3G23550 MATE efflux family protein: 0.84
  Fold-change AT3G25710 basic helix-loop-helix (bHLH) family protein: 1.06
  Fold-change AT3G25900 homocysteine S-methyltransferase 1 (HMT-1): 1.17
  Fold-change AT3G26910 hydroxyproline-rich glycoprotein family protein: 1.08
  Fold-change AT3G30180 cytochrome p450 enzyme: 0.31
  Fold-change AT3G46880 expressed protein,: 0.84
  Fold-change AT3G47800 aldose 1-epimerase family protein: 1.06
  Fold-change AT3G48970 copper-binding family protein: 0.97
  Fold-change AT3G49810 U-box domain-containing protein: 0.89
  Fold-change AT3G50650 scarecrow-like transcription factor 7 (SCL7): 1.17
  Fold-change AT3G50660 steroid 22-alpha-hydroxylase (CYP90B1) (DWF4): 0.47
  Fold-change AT3G50750 brassinosteroid signalling positive regulator-related (BEH1): 0.99
  Fold-change AT3G52490 heat shock protein-related: 0.93
  Fold-change AT3G53810 lectin protein kinase: 0.80
  Fold-change AT3G54950 patatin-related,: 0.86
  Fold-change AT3G55120 chalcone-flavanone isomerase: 0.98
  Fold-change AT3G55150 exocyst subunit EXO70 family protein: 0.75
  Fold-change AT3G55840 expressed protein: 1.06
  Fold-change AT3G61460 zinc finger (C3HC4-type RING finger) family protein (BRH1): 0.78
  Fold-change AT3G63300 expressed protein: 1.02
  Fold-change AT4G01680 myb family transcription factor (MYB55): 0.51
  Fold-change AT4G02410 lectin protein kinase family protein: 0.66
  Fold-change AT4G08040 1-aminocyclopropane-1-carboxylate synthase, putative: 0.13
  Fold-change AT4G09460 myb family transcription factor: 1.30
  Fold-change AT4G12390 invertase/pectin methylesterase inhibitor family protein: 0.96
  Fold-change AT4G12410 auxin-responsive family protein: 1.02
  Fold-change AT4G14130 xyloglucan:xyloglucosyl transferase: 0.85
  Fold-change AT4G15975 zinc finger (C3HC4-type RING finger) family protein: 1.10
  Fold-change AT4G16146 expressed protein: 0.82
